Activity calls are given as the source filed them. The calls are words filed in the database; no cut-off is given here.
molecular target: Glycylpeptide N-tetradecanoyltransferase 1 (Homo sapiens, UniProt P30419, L495M/N473H/Q496L); experiment: not given; conditions: not given
Sequence (P30419 whole entry N473H/L495M/Q496L): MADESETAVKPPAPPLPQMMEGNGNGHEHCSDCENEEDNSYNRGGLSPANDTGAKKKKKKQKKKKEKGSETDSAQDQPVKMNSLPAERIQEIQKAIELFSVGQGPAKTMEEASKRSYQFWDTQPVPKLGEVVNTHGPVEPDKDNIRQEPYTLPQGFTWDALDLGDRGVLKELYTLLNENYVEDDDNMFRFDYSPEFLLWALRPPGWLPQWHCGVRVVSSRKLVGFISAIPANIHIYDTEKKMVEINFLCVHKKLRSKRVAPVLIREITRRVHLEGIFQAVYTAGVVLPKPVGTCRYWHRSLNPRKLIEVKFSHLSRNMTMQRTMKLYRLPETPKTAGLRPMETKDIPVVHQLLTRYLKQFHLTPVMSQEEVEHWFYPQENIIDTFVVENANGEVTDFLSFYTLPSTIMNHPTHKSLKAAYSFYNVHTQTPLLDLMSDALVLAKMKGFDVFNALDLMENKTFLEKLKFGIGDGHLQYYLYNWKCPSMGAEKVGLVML

Row | Structure (SMILES) | Ki
1 | COc1cccc(Cc2noc(-c3ccccc3OC3CCNCC3)n2)c1 | 2100 nM
2 | N[C@@H](CC(=O)N1C[C@H](CO)[C@@H](c2ccc(Cl)cc2)C1)Cc1ccc(Cl)cc1 | 420 nM

molecular target: T1, Glycylpeptide N-tetradecanoyltransferase 1 (Homo sapiens, UniProt P30419); experiment: not given; conditions: not given
T1 sequence (P30419 whole entry): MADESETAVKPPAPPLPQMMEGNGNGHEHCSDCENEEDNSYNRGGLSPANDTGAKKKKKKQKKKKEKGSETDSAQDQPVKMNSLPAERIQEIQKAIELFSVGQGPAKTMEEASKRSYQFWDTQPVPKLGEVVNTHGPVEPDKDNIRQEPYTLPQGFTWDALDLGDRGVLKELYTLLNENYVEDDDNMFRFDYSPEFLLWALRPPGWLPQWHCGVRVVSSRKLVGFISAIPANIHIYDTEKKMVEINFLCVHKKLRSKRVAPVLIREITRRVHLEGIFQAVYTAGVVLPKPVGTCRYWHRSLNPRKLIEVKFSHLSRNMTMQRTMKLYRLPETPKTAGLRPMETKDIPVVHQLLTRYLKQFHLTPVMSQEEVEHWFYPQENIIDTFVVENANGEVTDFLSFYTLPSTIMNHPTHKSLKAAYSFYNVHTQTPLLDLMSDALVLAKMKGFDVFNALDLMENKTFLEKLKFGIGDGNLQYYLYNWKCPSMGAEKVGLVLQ

Row | Structure (SMILES) | Ki
3 | COc1cccc(Cc2noc(-c3ccccc3OC3CCNCC3)n2)c1 | 3300 nM
4 | N[C@@H](CC(=O)N1C[C@H](CO)[C@@H](c2ccc(Cl)cc2)C1)Cc1ccc(Cl)cc1 | 2900 nM
5 | COc1ccccc1-n1cc(-c2ccnc(NCCC3CCCN3C)n2)cn1 (centres undefined) | > 40 nM

molecular target: T2, NMT1 (glycylpeptide N-tetradecanoyltransferase 1) (Homo sapiens, UniProt P30419); experiment: not given; conditions: probe GSNKSKPK peptide
T2 sequence (P30419 whole entry): T1 sequence (P30419 whole entry)

Row | inhibition at 0.5 h, 500 µM | Structure (SMILES)
6 | 59% | COc1ccccc1-n1cc(-c2ccnc(NCCC3CCCN3C)n2)cn1 (centres undefined)

molecular target: T3, Glycylpeptide N-tetradecanoyltransferase 1 (Homo sapiens, UniProt P30419, A452M/L453V/L462V/L495M/N473H/Q496L/R295Q/W297F); experiment: not given; conditions: not given
T3 sequence (P30419 whole entry R295Q/W297F/A452M/L453V/L462V/N473H/L495M/Q496L): as the sequence (P30419 whole entry N473H/L495M/Q496L) above, with R295Q, W297F, A452M, L453V, L462V counted along it

Row | Structure (SMILES) | Ki
7 | COc1cccc(Cc2noc(-c3ccccc3OC3CCNCC3)n2)c1 | 33 nM
8 | N[C@@H](CC(=O)N1C[C@H](CO)[C@@H](c2ccc(Cl)cc2)C1)Cc1ccc(Cl)cc1 | 29.2 nM
9 | COc1ccccc1-n1cc(-c2ccnc(NCCC3CCCN3C)n2)cn1 (centres undefined) | 16700 nM

molecular target: T4, Glycylpeptide N-tetradecanoyltransferase (Leishmania major) (UniProt Q4Q5S8); experiment: not given; conditions: 500 uM
T4 sequence (whole entry): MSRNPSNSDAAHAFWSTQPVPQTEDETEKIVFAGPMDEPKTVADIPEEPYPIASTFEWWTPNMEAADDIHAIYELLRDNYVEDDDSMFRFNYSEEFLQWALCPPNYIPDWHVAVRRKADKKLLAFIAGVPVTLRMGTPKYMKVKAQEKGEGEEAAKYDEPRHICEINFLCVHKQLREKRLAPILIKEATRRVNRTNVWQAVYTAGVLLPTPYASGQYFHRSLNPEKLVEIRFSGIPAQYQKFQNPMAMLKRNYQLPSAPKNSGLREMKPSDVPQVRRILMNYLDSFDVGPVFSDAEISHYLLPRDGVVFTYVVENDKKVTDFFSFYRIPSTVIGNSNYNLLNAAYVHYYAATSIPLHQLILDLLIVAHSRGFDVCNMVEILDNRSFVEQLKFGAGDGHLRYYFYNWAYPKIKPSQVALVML

Row | inhibition | Structure (SMILES)
10 | 97% | COc1cccc(-n2cc(-c3ccnc(NCCC4CCCN4C)n3)cn2)c1 (centres undefined)
11 | 90% | Cc1cncn1C(C)C(=O)NCc1cccnc1C1CCCN(C)CC1 (centres undefined)
12 | 91% | COc1ccccc1-n1cc(-c2ccnc(NCCC3CCCN3C)n2)cn1 (centres undefined)

molecular target: T5, Glycylpeptide N-tetradecanoyltransferase (Leishmania major, UniProt Q4Q5S8); experiment: not given; conditions: not given
T5 sequence (Q4Q5S8 whole entry): T4 sequence (whole entry)

Row | Structure (SMILES) | Ki
13 | Cc1nn(C)c(C)c1N(C)S(=O)(=O)c1c(Cl)cc(CCCN2CCNCC2)cc1Cl | 19.8 nM
14 | COc1cccc(-n2cc(-c3ccnc(NCCC4CCCN4C)n3)cn2)c1 (centres undefined) | 7.3 nM
15 | COc1cccc(Cc2noc(-c3ccccc3OC3CCNCC3)n2)c1 | 70.8 nM
16 | Cc1nn(C)c(C)c1NS(=O)(=O)c1c(Cl)cc(-c2ccnc(N3CCN(C)CC3)c2)cc1Cl | 1.4 nM
17 | Cc1cncn1C(C)C(=O)NCc1cccnc1C1CCCN(C)CC1 (centres undefined) | 52.3 nM
18 | N[C@@H](CC(=O)N1C[C@H](CO)[C@@H](c2ccc(Cl)cc2)C1)Cc1ccc(Cl)cc1 | 280 nM
19 | COc1ccccc1-n1cc(-c2ccnc(NCCC3CCCN3C)n2)cn1 (centres undefined) | 19.6 nM
20 | O=C(Cc1ccc(F)cc1)Nc1ccc2[nH]cc(C3CCNCC3)c2c1 | 980 nM
21 | Cc1nn(C)c(C)c1Cc1nnc(-c2cc(Cl)ccc2OC2CCNCC2)o1 | 24.8 nM
22 | Cc1nn(C)c(C)c1N(C)S(=O)(=O)c1c(Cl)cc(CCCN2CCN3CCC[C@@H]3C2)cc1Cl | 2 nM

molecular target: T4, Glycylpeptide N-tetradecanoyltransferase (Leishmania major); experiment: not given; conditions: not given

Row | inhibition | Structure (SMILES)
23 | Dose-dependent effect | COc1cccc(-n2cc(-c3ccnc(NCCC4CCCN4C)n3)cn2)c1 (centres undefined)
24 | Dose-dependent effect | Cc1cncn1C(C)C(=O)NCc1cccnc1C1CCCN(C)CC1 (centres undefined)
25 | Dose-dependent effect | COc1ccccc1-n1cc(-c2ccnc(NCCC3CCCN3C)n2)cn1 (centres undefined)

molecular target: T3, Glycylpeptide N-tetradecanoyltransferase 1; experiment: not given; conditions: 0.5 h

Row | inhibition at 500 µM | Structure (SMILES)
26 | 98% | COc1ccccc1-n1cc(-c2ccnc(NCCC3CCCN3C)n2)cn1 (centres undefined)

molecular target: Glycylpeptide N-tetradecanoyltransferase (Leishmania major, UniProt Q4Q5S8, L421Q); experiment: Inhibition of Leishmania major NMT L421Q mutant expressed in Escherichia coli Rosetta-2 cells using GSNKSKPK as substrate in presence of MyrCoA after 30 mins by CPM dye based fluorescence assay; conditions: not given
Sequence (Q4Q5S8 whole entry L421Q): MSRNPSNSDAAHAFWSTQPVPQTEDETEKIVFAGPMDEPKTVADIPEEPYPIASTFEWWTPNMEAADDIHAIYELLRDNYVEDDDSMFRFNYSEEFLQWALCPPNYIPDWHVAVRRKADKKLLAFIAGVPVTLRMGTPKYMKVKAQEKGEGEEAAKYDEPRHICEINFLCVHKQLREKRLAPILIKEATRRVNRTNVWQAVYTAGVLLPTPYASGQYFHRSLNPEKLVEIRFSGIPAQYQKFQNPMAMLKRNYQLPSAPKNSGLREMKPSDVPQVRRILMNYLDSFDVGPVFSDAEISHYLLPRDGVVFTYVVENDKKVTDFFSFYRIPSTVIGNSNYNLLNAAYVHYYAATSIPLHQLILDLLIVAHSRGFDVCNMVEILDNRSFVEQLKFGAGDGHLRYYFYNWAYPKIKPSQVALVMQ

Row | Structure (SMILES) | Ki
27 | Cc1nn(C)c(C)c1N(C)S(=O)(=O)c1c(Cl)cc(CCCN2CCNCC2)cc1Cl | 2.3 nM
28 | Cc1nn(C)c(C)c1NS(=O)(=O)c1c(Cl)cc(-c2ccnc(N3CCN(C)CC3)c2)cc1Cl | 6 nM
29 | O=C(Cc1ccc(F)cc1)Nc1ccc2[nH]cc(C3CCNCC3)c2c1 | 2600 nM
30 | Cc1nn(C)c(C)c1N(C)S(=O)(=O)c1c(Cl)cc(CCCN2CCN3CCC[C@@H]3C2)cc1Cl | 36.6 nM

molecular target: Genome polyprotein (dengue virus type 2) (UniProt P29990); experiment: Inhibition of Dengue virus 2 NS2B-NS3 protease at 100 uM; conditions: not given

Row | inhibition | Structure (SMILES)
31 | inactive | COc1cccc(-n2cc(-c3ccnc(NCCC4CCCN4C)n3)cn2)c1 (centres undefined)
32 | inactive | Cc1cncn1C(C)C(=O)NCc1cccnc1C1CCCN(C)CC1 (centres undefined)
33 | inactive | COc1ccccc1-n1cc(-c2ccnc(NCCC3CCCN3C)n2)cn1 (centres undefined)

tested on: human NMT1 versus Leishmania major NMT; experiment: in vitro; conditions: human (numerator) and Leishmania major (denominator)
Description: Selectivity index, ratio of Ki for inhibition of N-terminal TEV cleavage site-fused His6 tagged human NMT1 (115 to 496 residues) to Ki for inhibition of N-terminal TEV cleavage site-fused His6 tagged Leishmania major NMT (11 to 421 residues)

Row | Structure (SMILES) | selectivity ratio
34 | COc1cccc(Cc2noc(-c3ccccc3OC3CCNCC3)n2)c1 | 47.8
35 | N[C@@H](CC(=O)N1C[C@H](CO)[C@@H](c2ccc(Cl)cc2)C1)Cc1ccc(Cl)cc1 | 10.5

molecular target: Glycylpeptide N-tetradecanoyltransferase (Leishmania major, UniProt Q4Q5S8, H398N); experiment: Inhibition of Leishmania major NMT H398N mutant expressed in Escherichia coli Rosetta-2 cells using GSNKSKPK as substrate in presence of MyrCoA after 30 mins by CPM dye based fluorescence assay; conditions: not given
Sequence (Q4Q5S8 whole entry H398N): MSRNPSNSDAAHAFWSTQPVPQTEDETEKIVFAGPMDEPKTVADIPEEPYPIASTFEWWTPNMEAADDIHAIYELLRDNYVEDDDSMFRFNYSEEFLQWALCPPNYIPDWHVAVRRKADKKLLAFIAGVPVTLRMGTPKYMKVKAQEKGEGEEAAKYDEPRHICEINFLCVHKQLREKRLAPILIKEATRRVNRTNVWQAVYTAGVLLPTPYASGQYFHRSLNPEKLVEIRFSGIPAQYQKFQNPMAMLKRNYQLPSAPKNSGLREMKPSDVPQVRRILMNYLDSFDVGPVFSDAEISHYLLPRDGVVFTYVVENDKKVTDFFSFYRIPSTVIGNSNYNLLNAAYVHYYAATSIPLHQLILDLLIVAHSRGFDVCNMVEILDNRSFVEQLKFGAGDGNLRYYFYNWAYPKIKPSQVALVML

Row | Structure (SMILES) | Ki
36 | Cc1nn(C)c(C)c1N(C)S(=O)(=O)c1c(Cl)cc(CCCN2CCNCC2)cc1Cl | 1.6 nM
37 | Cc1nn(C)c(C)c1NS(=O)(=O)c1c(Cl)cc(-c2ccnc(N3CCN(C)CC3)c2)cc1Cl | 8.5 nM
38 | O=C(Cc1ccc(F)cc1)Nc1ccc2[nH]cc(C3CCNCC3)c2c1 | 520 nM
39 | Cc1nn(C)c(C)c1N(C)S(=O)(=O)c1c(Cl)cc(CCCN2CCN3CCC[C@@H]3C2)cc1Cl | 1.3 nM
